Measured values reported in patent EP0168709A1, “Process for preparing chlorinated phosphorylmethylcarbonyl derivatives, and intermediates for their preparation” (BAYER AG, priority 1984, dated 1986).

Legend:
Format in all cases: in vivo
Testpflanzen = assay: Pre-emergence test, greenhouse (overall statement); details: result in words
From the text: (§1) Pre-emergence-Test - Gewächshaus
(§2) Lösungsmittel: 5 Gewichtsteile Aceton
(§3) Emulgator: 1 Gewichtsteil Alkylarylpolyglykolether
(§4) Zur Herstellung einer zweckmäßigen Wirkstoffzubereitung vermischt man 1 Gewichtsteil Wirkstoff mit der angegebenen Menge Lösungsmittel, gibt die angegebene Menge Emulgator zu und verdünnt das Konzentrat mit Wasser auf die gewünschte Konzentration.
(§5) Samen der Testpflanzen werden in normalen Boden ausgesät und nach 24 Stunden mit der Wirkstoffzubereitung begossen. Dabei hält man die Wassermenge pro Flächeneinheit zweckmäßigerweise konstant. Die Wirkstoffkonzentration in der Zubereitung spielt keine Rolle, entscheidend ist nur die Aufwandmenge des Wirkstoffs pro Flächeneinheit. Nach drei Wochen wird der Schädigungsgrad der Pflanzen bonitiert in % Schädigung im Vergleich zur Entwicklung der unbehandelten Kontrolle. Es bedeuten: • O % = keine Wirkung (wie unbehandelte Kontrolle) 100 % = totale Vernichtung

Soja-bohnen = assay: Pre-emergence test, greenhouse; details: 0,5 kg/ha, rated after three weeks vs untreated control, 0 % = no effect, 100 % = total destruction
From the text: as §1, §2, §3, §4, §5

Baum-wolle = assay: Pre-emergence test, greenhouse; details: 0,5 kg/ha, rated after three weeks vs untreated control, 0 % = no effect, 100 % = total destruction
From the text: as §1, §2, §3, §4, §5

Sorghum halepense = assay: Pre-emergence test, greenhouse; details: 0,5 kg/ha, rated after three weeks vs untreated control, 0 % = no effect, 100 % = total destruction
From the text: as §1, §2, §3, §4, §5

CC(C)CC(=O)C(Cl)(Cl)P(=O)(OC(C)C)OC(C)C [Beispiel 1, O,O-Di-i-propyl-(1,1-dichlor-4-methyl-2-oxo-pentan)-phosphonsäureester]
Wirksamkeit (Testpflanzen): ausgezeichnete Wirksamkeit
Schädigungsgrad der Pflanzen (% Schädigung), Soja-bohnen (Soja-bohnen): 0%
Schädigungsgrad der Pflanzen (% Schädigung), Baum-wolle (Baum-wolle): 0%
Schädigungsgrad der Pflanzen (% Schädigung), Sorghum halepense (Sorghum halepense): 100%
